Measurements: patent US8378104B2 (OSI Pharmaceuticals, LLC, priority 2010, dated 2013)
Where a name gives a salt, the structure may show the parent alone.

The compounds below were run against T1, TAK1-TAB1 fusion protein (Homo sapiens, UniProt O43318) (assay: TAK1 biochemical assay (AlphaScreen, GST-MAP2K7 substrate)). Details: TAK1-TAB1 fusion protein, GST-MAP2K7 substrate; read-out: mean TAK1 IC50 (Col. A).
T1 construct: purchased Carna
T1 sequence (O43318 with tags, fused parts or gaps limits assumed): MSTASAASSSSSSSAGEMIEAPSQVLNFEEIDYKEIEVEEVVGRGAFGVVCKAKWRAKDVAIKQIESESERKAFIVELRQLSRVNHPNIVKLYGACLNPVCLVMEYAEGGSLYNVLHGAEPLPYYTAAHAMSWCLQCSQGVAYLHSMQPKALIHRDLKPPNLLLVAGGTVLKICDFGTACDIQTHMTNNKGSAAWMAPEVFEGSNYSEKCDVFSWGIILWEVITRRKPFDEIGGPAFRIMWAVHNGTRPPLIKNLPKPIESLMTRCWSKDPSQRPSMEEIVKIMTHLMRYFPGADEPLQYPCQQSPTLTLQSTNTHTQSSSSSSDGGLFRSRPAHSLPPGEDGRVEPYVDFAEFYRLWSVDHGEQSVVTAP
Nc1ncc(-c2cnn(C3CCNCC3)c2)c2cc(-c3cc(F)cc(C(F)(F)F)c3)oc12 [Example 7, 2-[3-fluoro-5-(trifluoromethyl)phenyl]-4-[1-(piperidin-4-yl)-1H-pyrazol-4-yl]furo[2,3-c]pyridin-7-amine] was tested, and the IC50 was 1 to 10 µM. In the case of CC(=O)N1CCC(n2cc(-c3cnc(N)c4oc(-c5ccc(C(=O)N(C)C)cc5)cc34)cn2)CC1 [Example 125, 4-{4-[1-(1-acetylpiperidin-4-yl)-1H-pyrazol-4-yl]-7-aminofuro[2,3-c]pyridin-2-yl}-N,N-dimethylbenzamide], the IC50 is reported as > 10 µM. With Cc1c(-c2ccc3[nH]ncc3c2)oc2c(N)ncc(-c3cnn(C4CCNCC4)c3)c12 [Example 11, 2-(1H-indazol-5-yl)-3-methyl-4-[1-(piperidin-4-yl)-1H-pyrazol-4-yl]furo[2,3-c]pyridin-7-amine hydrochloride] the IC50 was 1 to 10 µM. For CC(=O)N1CCC(n2cc(-c3cnc(N)c4oc(-c5cnc6ccccc6c5)cc34)cn2)CC1 [Example 168, 1-(4-{4-[7-amino-2-(quinolin-3-yl)furo[2,3-c]pyridin-4-yl]-1H-pyrazol-1-yl}piperidin-1-yl)ethanone], the IC50 was 1 to 10 µM. Nc1ncc(-c2cnn([C@H]3CC[C@H](O)CC3)c2)c2cc(-c3ccc4c(c3)C(=O)NC4)oc12 [Example 403, 6-{7-amino-4-[1-(trans-4-hydroxycyclohexyl)-1H-pyrazol-4-yl]furo[2,3-c]pyridin-2-yl}-2,3-dihydro-1H-isoindol-1-one] showed an IC50 of 0.1 to 1 µM. With CCNc1ncc(-c2cnn(C3CCN(C(C)=O)CC3)c2)c2cc(-c3csc4cnccc34)oc12 [Example 277, 1-(4-{4-[7-(ethylamino)-2-(thieno[2,3-c]pyridin-3-yl)furo[2,3-c]pyridin-4-yl]-1H-pyrazol-1-yl}piperidin-1-yl)ethanone trifluoroacetic acid salt] the IC50 was 1 to 10 µM. Work on CC(=O)N1CCC(n2cc(-c3cnc(N)c4oc(-c5cccc(C(N)=O)c5)cc34)cn2)CC1 [Example 122, 3-{4-[1-(1-acetylpiperidin-4-yl)-1H-pyrazol-4-yl]-7-aminofuro[2,3-c]pyridin-2-yl}benzamide] yielded an IC50 of 0.1 to 1 µM. Nc1ncc(-c2cnn(C3CCNCC3)c2)c2cc(-c3ccc4[nH]cnc4c3)oc12 [Example 39, 2-(1H-benzimidazol-5-yl)-4-[1-(piperidin-4-yl)-1H-pyrazol-4-yl]furo[2,3-c]pyridine-7-amine] gave an IC50 of 0.1 to 1 µM. Nc1ncc(-c2cnn(C3CCNCC3)c2)c2c(Cl)c(-c3ccc4[nH]ccc4c3)oc12 [Example 14, 3-chloro-2-(1H-indol-5-yl)-4-[1-(piperidin-4-yl)-1H-pyrazol-4-yl]furo[2,3-c]pyridin-7-amine hydrochloride] showed an IC50 of 1 to 10 µM. For CC(=O)N1CCC(n2cc(-c3cnc(N)c4oc(-c5coc6ccccc56)cc34)cn2)CC1 [Example 220, 1-(4-{4-[7-amino-2-(1-benzofuran-3-yl)furo[2,3-c]pyridin-4-yl]-1H-pyrazol-1-yl}piperidin-1-yl)ethanone bis(trifluoroacetate)], the IC50 was 1 to 10 µM. With Nc1ncc(-c2cnn(C3CCN(C(=O)Nc4cccc(Cc5ccccc5)c4)CC3)c2)c2cc(-c3cccc4cnsc34)oc12 [Example 339, 4-[4-(7-amino-2-benzo[d]isothiazol-7-yl-furo[2,3-c]pyridin-4-yl)-pyrazol-1-yl]-piperidine-1-carboxylic acid (3-benzyl-phenyl)-amide] the IC50 was 1 to 10 µM. For CC(=O)N1CCC(n2cc(-c3cnc(N)c4oc(-c5ccc(N6CCCCC6)nc5)cc34)cn2)CC1 [Example 118, 1-[4-(4-{7-amino-2-[6-(piperidin-1-yl)pyridin-3-yl]furo[2,3-c]pyridin-4-yl}-1H-pyrazol-1-yl)piperidin-1-yl]ethanone], the IC50 was > 10 µM. CC(=O)N1CCC(n2cc(-c3cnc(N)c4oc(-c5cnn(Cc6ccncc6)c5)cc34)cn2)CC1 [Example 151, 1-[4-(4-{7-amino-2-[1-(pyridin-4-ylmethyl)-1H-pyrazol-4-yl]furo[2,3-c]pyridin-4-yl}-1H-pyrazol-1-yl)piperidin-1-yl]ethanone] was tested, and the IC50 was 1 to 10 µM. Work on CC(=O)N1CCC(n2cc(-c3cnc(N)c4oc(-c5cccc6c5cnn6C)cc34)cn2)CC1 [Example 214, 1-(4-{4-[7-amino-2-(1-methyl-1H-indazol-4-yl)furo[2,3-c]pyridin-4-yl]-1H-pyrazol-1-yl}piperidin-1-yl)ethanone] yielded an IC50 of 0.1 to 1 µM. For Nc1ncc(-c2cnn(C3CCNCC3)c2)c2cc(-c3csc4ccccc34)oc12 [Example 19, 2-(1-benzothiophen-3-yl)-4-[1-(piperidin-4-yl)-1H-pyrazol-4-yl]furo[2,3-c]pyridine-7-amine], the IC50 was 1 to 10 µM. Nc1ncc(-c2cnn(C3CCNCC3)c2)c2cc(-c3ccsc3)oc12 [Example 28, 4-[1-(piperidin-4-yl)-1H-pyrazol-4-yl]-2-(thiophen-3-yl)furo[2,3-c]pyridine-7-amine] showed an IC50 of 1 to 10 µM. Compound Cc1ccc(-c2cnc(N)c3oc(-c4csc5cnccc45)cc23)s1 [Example 386, 4-(5-methyl-thiophen-2-yl)-2-thieno[2,3-c]pyridin-3-yl-furo[2,3-c]pyridin-7-ylamine] has an IC50 of 1 to 10 µM. Nc1ncc(-c2cnn(C3CCNCC3)c2)c2cc(-c3ccn[nH]3)oc12 [Example 27, 4-[1-(piperidin-4-yl)-1H-pyrazol-4-yl]-2-(1H-pyrazol-5-yl)furo[2,3-c]pyridine-7-amine] was tested, and the IC50 was 1 to 10 µM. Nc1ncc(-c2cnn(C3CCNCC3)c2)c2cc(-c3cccc4c3NC(=O)C4)oc12 [Example 44, 7-{7-amino-4-[1-(piperidin-4-yl)-1H-pyrazol-4-yl]furo[2,3-c]pyridine-2-yl}-1,3-dihydro-2H-indol-2-one] was tested, and the IC50 was 1 to 10 µM. In the case of Nc1ncc(-c2cnn(C3CCNCC3)c2)c2cc(-c3cccnc3)oc12 [Example 26, 4-[1-(piperidin-4-yl)-1H-pyrazol-4-yl]-2-(yridine-3-yl)furo[2,3-c]pyridine-7-amine], the IC50 is reported as 1 to 10 µM. Work on Cc1csc(-c2cnc(N)c3oc(-c4csc5cnccc45)cc23)c1 [Example 375, 4-(4-methyl-thiophen-2-yl)-2-thieno[2,3-c]pyridin-3-yl-furo[2,3-c]pyridin-7-ylamine] yielded an IC50 of 1 to 10 µM. CC(=O)N1CCC(n2cc(-c3cnc(N)c4oc(-c5c(-c6ccccc6)sc6cnccc56)cc34)cn2)CC1 [Example 263, 1-(4-{4-[7-amino-2-(2-phenylthieno[2,3-c]pyridin-3-yl)furo[2,3-c]pyridin-4-yl]-1H-pyrazol-1-yl}piperidin-1-yl)ethanone trifluoroacetate] showed an IC50 of 0.1 to 1 µM. Work on CC(=O)Nc1ccc(-c2cc3c(-c4cnn(C5CCN(C(C)=O)CC5)c4)cnc(N)c3o2)cn1 [Example 126, N-(5-{4-[1-(1-acetylpiperidin-4-yl)-1H-pyrazol-4-yl]-7-aminofuro[2,3-c]pyridin-2-yl}pyridin-2-yl)acetamide] yielded an IC50 of 1 to 10 µM. Work on Nc1ncc(-c2cnn(C3CCNCC3)c2)c2cc(-c3ccc4cc[nH]c4c3)oc12 [Example 29, 2-(1H-indol-6-yl)-4-[1-(piperidin-4-yl)-1H-pyrazol-4-yl]furo[2,3-c]pyridin-7-amine] yielded an IC50 of 1 to 10 µM. CC(=O)N1CCC(n2cc(-c3cnc(N)c4oc(-c5cccc(S(=O)(=O)N(C)C)c5)cc34)cn2)CC1 [Example 134, 3-{4-[1-(1-acetylpiperidin-4-yl)-1H-pyrazol-4-yl]-7-aminofuro[2,3-c]pyridin-2-yl}-N,N-dimethylbenzenesulfonamide] gave an IC50 of 1 to 10 µM.
